Molecules are shown by their SMILES.

The subject of one assay is sixty human tumour cells. In words: NCI in vitro cytotoxicity, SRB assay, mean graph midpoints. The class given is cell-based. The conditions noted are these: 48 h continuous drug exposure, human tumour cell lines. As to the method: (§1) In vitro biological activity studies were carried out at National Cancer Institute (USA).
(§2) Compounds Ve and Vg were evaluated the primary anti-cancer activity (Table 1) and further Ve have been evaluated in vitro against sixty human tumour cells derived from nine cancer types (leukemia, non-small-cell lung, colon, CNS, melanoma, ovarian, prostate, and breast cancer). For each compound, dose response curves for each cell line were measured at a minimum of five concentrations at 10 fold dilutions. A protocol of 48 h continuous drug exposure was used and a sulforhodamine B (SRB) protein assay was used to estimate cell viability or growth. The concentration causing 50% cell growth inhibition (GI50), total cell growth inhibition (TGI 0% growth) and 50% cell death (LC50, −50% growth) compared with the control was calculated.

Another assay concerns NCI-H460 (Lung). In words: In vitro one dose primary anticancer assay (NCI). The class given is cell-based, human. The conditions noted are these: one dose at 10^−4 molar concentration. As for the experimental part: as §1, §2
The test system of another assay is SF-268 (CNS). In words: In vitro one dose primary anticancer assay (NCI). The class given is cell-based, human. The conditions noted are these: one dose at 10^−4 molar concentration. As for the experimental part:
as §1, §2

For another assay, the system named is MCF7 (Breast). In words: In vitro one dose primary anticancer assay (NCI). The conditions noted are these: one dose at 10^−4 molar concentration. The format is cell-based, human. As to the method: as §1, §2

For `COc1cc2c(cc1OCCCC(=O)Nc1ccc3ccc4cccc5ccc1c3c45)N=C[C@@H]1CCCN1C2=O` [Ve, 7-Methoxy-8-[N-(1″-pyrenyl)-propane-3′-carboxamide]-oxy-(11aS)-1,2,3,11a tetra-hydro-5H-pyrrolo[2,1-c][1,4]benzodiazepin-5-one], in the assay on sixty human tumour cells, the “Log10 TGI mean graph midpoint (MG_MID)” value is listed as −6.89. Moreover, the “Growth percentages (Lung) NCI-H460” value in the assay with NCI-H460 (Lung) came out at 11%. The “Growth percentages (CNS) SF-268” value in the assay with SF-268 (CNS) amounted to 70%. In addition, the “Growth percentages (Breast) MCF7” value in the assay with MCF7 (Breast) is 31%.
Consider `COc1cc2c(cc1OCCCCC(=O)Nc1ccc3ccc4cccc5ccc1c3c45)N=C[C@@H]1CCCN1C2=O` [Vg, 7-Methoxy-8-[N-(1″-pyrenyl)-butane-4′-carboxamide]-oxy-(11aS)-1,2,3,11a-tetra-hydro-5H-pyrrolo[2,1-c][1,4]benzodiazepin-5-one], for which the “Growth percentages (Lung) NCI-H460” value in the assay on NCI-H460 (Lung) amounted to 106%. Moreover, the “Growth percentages (CNS) SF-268” value in the assay with SF-268 (CNS) worked out at 131%. In addition, in the assay with MCF7 (Breast), the “Growth percentages (Breast) MCF7” value amounted to 72%.
